Measured values reported in US9238034B2, “FN14 antagonists and therapeutic uses thereof” (THE TRANSLATIONAL GENOMICS RESEARCH INSTITUTE, priority 2013, dated 2016).
Where two headings read alike, the source gives them in different places.

Biological target: T1, Fn14-TWEAK binding (Homo sapiens, UniProt Q9NP84)
T1 construct: the human Fc fragment-tagged Fn14 extracellular domain (R&D Systems) was captured; purchased R&D Systems (Fn14-Fc); Peprotech (recombinant TWEAK)
T1 sequence (Q9NP84 28-80 limits assumed): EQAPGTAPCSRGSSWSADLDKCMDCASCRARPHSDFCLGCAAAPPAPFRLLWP
Test: Double sandwich ELISA small molecule screening of TWEAK binding to captured Fn14-Fc
Protocol: Double Sandwich ELISA. sTWEAK and sTWEAK variant proteins were synthesized as described above. The expression level of each IVTT synthesized sTWEAK protein was analyzed by western blot analysis and used in approximately equal amounts in the ELISA. To assay the binding of wild type sTWEAK and sTWEAK variants to Fn14, the human Fc fragment-tagged Fn14 extracellular domain (R&D Systems) was captured in an Immuno 96-microwell white plate by adding 100 μL of 0.025 μg/mL Fn14-Fc to wells coated with goat anti-human Fcγ fragment specific monoclonal antibody. After capture, the wells were washed 3× with Dulbecco's Phosphate Buffered Saline (DPBS) containing 0.05% Tween-20. Unbound sites were blocked by addition of 100 μL of blocking solution containing 0.05% Tween-20, 1% BSA, and 3% normal goat serum (NGS) in DPBS for 1 hr at room temperature. 0.01 μL of sTWEAK or sTWEAK variant made with the human IVTT kit or 2 μL of sTWEAK or sTWEAK variant made with the rabbit IVTT kit was diluted in 100 μL of sample diluent (DPBS+1% BSA+0.005% Tween-20) and then added to the wells for 2 hr followed by addition of 100 μL of 50 ng/mL biotinylated TWEAK detection antibody (R&D Systems) in sample diluent. Following incubation for additional 2 hr at room temperature, wells were washed 3× with DPBS containing 0.05% Tween-20 and bound biotinylated TWEAK antibody was detected by incubation with an HRP-conjugated streptavidin. The total luminescent signal was obtained using Femto ELISA kit (Pierce Biochemical) and compared to the standard curve signal obtained from the binding of 0-4000 pg/mL recombinant TWEAK (Peprotech inc) to Fn14-Fc. Using 5-parameter logistic curve fitting for standard curve analysis (Sigmaplot 11.0, SyStat Software Inc.), binding of sTWEAK or TWEAK variant to Fn14-Fc was determined. The data represents that observed for at least four replicate assays.
The small molecule screening was performed using the ELISA assay described above with minor modifications. Briefly, after capturing Fn14-Fc in the microwell plate, 80 μl of drug solution in sample diluent was added to desired wells and incubated for 2 hrs at room temperature. Subsequently, 20 μL of 2500 pg/mL (5×) TWEAK was added to each well to achieve final TWEAK concentration of 500 pg/mL and incubated for additional 2 hr at room temperature. Bound TWEAK was detected as described in the protocol above. All small molecule inhibitors were screened at 25 μM final concentration (final DMSO concentration of 0.125%) in duplicate. Cyclohexamide, a non-specific small molecule, at 25 μM concentration was used as negative control. The anti-Fn14 antibody ITEM-4, added at 2.5 μg/mL, was used as a positive control for complete blockade of TWEAK binding. Reduction in TWEAK binding due to compound addition or controls was calculated by using standard curve (Separate standard curve was obtained for every screening plate).

[1] = Table 5, 25 μM, average of duplicate, read-out: % Reduction in TWEAK Binding, Average
[2] = Table 5, 25 μM, replicate 1, read-out: % Reduction in TWEAK Binding, Data 1
[3] = Table 5, 25 μM, replicate 2, read-out: % Reduction in TWEAK Binding, Data 2
[4] = Table 4, second screening iteration, 25 μM, average of duplicate, read-out: % Reduction in TWEAK Binding, Average
[5] = Table 4, second screening iteration, 25 μM, replicate 1, read-out: % Reduction in TWEAK Binding, Data 1
[6] = Table 4, second screening iteration, 25 μM, replicate 2, read-out: % Reduction in TWEAK Binding, Data 2
[7] = second screening iteration, 25 μM, average, read-out: inhibition of TWEAK binding to Fn14
[8] = Table 3, first round of screening, 25 μM, average of duplicate, read-out: % Reduction in TWEAK Binding, Average
[9] = Table 3, first round of screening, 25 μM, replicate 1, read-out: % Reduction in TWEAK Binding, Data 1
[10] = Table 3, first round of screening, 25 μM, replicate 2, read-out: % Reduction in TWEAK Binding, Data 2
[11] = first round of screening, 25 μM, read-out: average inhibition in TWEAK-Fn14 binding

inhibition at 25 µM [1]	inhibition at 25 µM [2]	inhibition at 25 µM [3]	inhibition at 25 µM [4]	inhibition at 25 µM [5]	inhibition at 25 µM [6]	inhibition at 25 µM [7]	% Reduction in TWEAK Binding, Average (Table 4, second screening iteration, 25 μM, average of duplicate)	% Reduction in TWEAK Binding, Data 2 (Table 4, second screening iteration, 25 μM, replicate 2)	inhibition at 25 µM [8]	inhibition at 25 µM [9]	inhibition at 25 µM [10]	inhibition at 25 µM (first round of screening, 25 μM, read-out: single point activities / individual data points, inhibition of the Fn14-TWEAK interaction)	inhibition at 25 µM [11]	SMILES
19.6%	22.2%	17.1%	–	–	–	–	–	–	–	–	–	–	–	CCS(=O)(=O)c1ccc(OCc2cc(=O)n3oc(C)cc3n2)c(NC(=O)COc2ccccc2C)c1
12%	15.3%	8.76%	–	–	–	–	–	–	–	–	–	–	–	O=C(c1csc(S(=O)(=O)NCc2ccccn2)c1)N1CCCCCC1
22%	28.1%	15.9%	–	–	–	–	–	–	–	–	–	–	–	O=C(NCc1ccc(F)cc1)C1CCCN(c2nc3c(-c4ccccc4)csc3c(=O)[nH]2)C1 (centres unmarked)
14.3%	13.4%	15.2%	–	–	–	–	–	–	–	–	–	–	–	O=C(NCc1ccncc1)C1CCCN(c2nc3c(-c4ccccc4)csc3c(=O)[nH]2)C1 (centres unmarked)
13.4%	21.9%	4.93%	13.4%	21.9%	4.93%	–	–	–	–	–	–	–	–	Cc1cc(NC(=O)CSc2ccccc2)ccc1Cl [Compound 1068-0114]
32.1%	34.5%	29.8%	32.1%	34.5%	29.8%	32.1%	–	–	–	–	–	–	–	COc1ccc(-c2nnc(SCC(=O)Nc3ccccc3OC)nc2-c2ccc(OC)cc2)cc1 [Compound 3809-1067]
11.1%	15.3%	6.85%	11.1%	15.3%	6.85%	–	–	–	–	–	–	–	–	O=C(CSc1cccc2cccnc12)Nc1ccc2ccccc2c1 [Compound 4084-0026]
16.5%	15%	18%	16.5%	15%	18%	–	–	–	–	–	–	–	–	CCC(=O)Nc1ccccc1-c1ccccc1NC(=O)CC [Compound 4478-7056]
11.7%	11.3%	12.2%	11.7%	11.3%	12.2%	–	–	–	–	–	–	–	–	O=C(CSc1nnc(-c2ccccc2)c(-c2ccccc2)n1)Nc1ccc(S(=O)(=O)Nc2nccs2)cc1 [Compound 4981-0539]
10.5%	7.2%	13.8%	10.5%	7.2%	13.8%	–	–	–	–	–	–	–	–	CCCSc1nnc(-c2ccccc2NC(=O)CC)c(O)n1 [Compound 5511-0142]
16.8%	15.5%	18%	16.8%	15.5%	18%	–	–	–	–	–	–	–	–	C=CCSc1nnc(-c2ccccc2NC(=O)CC)c(O)n1 [Compound 6969-1085]
20.2%	19.5%	20.9%	20.2%	19.5%	20.9%	–	–	–	–	–	–	–	–	CCCC(=O)Nc1ccccc1-c1nnc(SC)nc1O [Compound 7033-0155]
15.7%	18.6%	12.7%	15.7%	18.6%	12.7%	–	–	–	–	–	–	–	–	COc1ccc(-c2nnc(SCC(=O)Nc3cccc4ccccc34)nc2-c2ccccc2)cc1 [Compound 8014-3315]
36.7%	35.6%	37.8%	36.7%	35.6%	37.8%	36.7%	–	–	–	–	–	–	–	Cc1cccc(-n2c(=O)c3[nH]c4ccccc4sc=3c2=O)c1 [Compound 8211-0292]
19.5%	17.8%	21.2%	19.5%	17.8%	21.2%	–	–	–	–	–	–	–	–	Nc1ccccc1SCC(=O)Nc1cccc2nsnc12 [Compound 8415-09495]
–	–	–	–	–	–	–	−5.743%	−5.743%	–	–	–	–	–	Cc1cccc(NC(=O)CS(=O)(=O)c2ccccc2)c1 [Compound C200-5958]
26.3%	27.4%	25.1%	26.3%	27.4%	25.1%	–	–	–	–	–	–	–	–	CCn1c(=O)c(S(=O)(=O)c2ccccc2)c(O)c2ccccc21 [Compound C200-7197]
19.7%	20.9%	18.5%	19.7%	20.9%	18.5%	–	–	–	–	–	–	–	–	O=C1CN(C(=O)CSc2ccccc2)c2ccccc2N1 [Compound D479-0271]
10.3%	0.98%	19.6%	–	–	–	–	–	–	10.3%	0.98%	19.6%	> 15%	–	COc1ccc(C2N[C@H](C(=O)O)Cc3c2[nH]c2ccccc32)cc1O (some centres unmarked) [Compound D715-0114]
11.7%	9.77%	13.6%	–	–	–	–	–	–	11.7%	9.77%	13.6%	–	–	COC(=O)[C@H]1Cc2c([nH]c3ccccc23)CN1 [Compound D715-0140]
10.3%	9.04%	11.5%	–	–	–	–	–	–	10.3%	9.04%	11.5%	–	–	O=C(Cc1c[nH]c2ccccc12)Nc1ccc2oc(=O)ccc2c1 [Compound D715-0817]
15.3%	17.1%	13.6%	–	–	–	–	–	–	15.3%	17.1%	13.6%	–	> 15%	Cc1cc(C)n(CC(=O)NCCc2c[nH]c3ccccc23)n1 [Compound D715-0890]
14.5%	14.3%	14.7%	–	–	–	–	–	–	14.5%	14.3%	14.7%	–	< 15%	O=C(O)C[C@@H]1NC(=O)c2ccccc2NC1=O [Compound D715-2673]
10.4%	13%	7.81%	–	–	–	–	–	–	10.4%	13%	7.81%	–	–	COc1ccccc1NC(=O)Cc1csc(NC(=O)Nc2ccccc2)n1 [Compound F042-0072]
22%	20.8%	23.2%	22%	20.8%	23.2%	–	–	–	–	–	–	–	–	O=C(NCc1n[nH]c(=O)c2ccccc12)C(=O)N1CCCCCC1 [Compound F044-0011]
13.7%	12.8%	14.7%	–	–	–	–	–	–	13.7%	12.8%	14.7%	–	< 15%	CC(C)NC(=O)C(=O)NCc1n[nH]c(=O)c2ccccc12 [Compound F044-0043]
